This is an account of results in US12378249B2, “Isoquinoline compounds and uses thereof” (Genentech, Inc., priority 2018, dated 2025).

In general, Ki refers to a dissociation constant, usually derived from enzyme kinetics or from competition with a known ligand.

Counter-ions that a name gives are not always drawn.

The target in the test is HPK1 (Homo sapiens (Human), UniProt Q92918, S171E/T165E). As to the kind of experiment: HPK1-FL HTRF Enzymatic Assay (HTRF). The class given is biochemical. The following applies: HPK full length T165E S171E 0.125 nM, ATP 1 mM, Biotin-SLP76 100 nM, read-out: HPK1 Ki (nM), H = HTRF. On the procedure: Exemplary compounds of Formula (I) were tested to assess compound inhibition of HPK-1. The Ki for each exemplary compound was determined
Sequence of HPK1 (Q92918 whole entry T165E/S171E): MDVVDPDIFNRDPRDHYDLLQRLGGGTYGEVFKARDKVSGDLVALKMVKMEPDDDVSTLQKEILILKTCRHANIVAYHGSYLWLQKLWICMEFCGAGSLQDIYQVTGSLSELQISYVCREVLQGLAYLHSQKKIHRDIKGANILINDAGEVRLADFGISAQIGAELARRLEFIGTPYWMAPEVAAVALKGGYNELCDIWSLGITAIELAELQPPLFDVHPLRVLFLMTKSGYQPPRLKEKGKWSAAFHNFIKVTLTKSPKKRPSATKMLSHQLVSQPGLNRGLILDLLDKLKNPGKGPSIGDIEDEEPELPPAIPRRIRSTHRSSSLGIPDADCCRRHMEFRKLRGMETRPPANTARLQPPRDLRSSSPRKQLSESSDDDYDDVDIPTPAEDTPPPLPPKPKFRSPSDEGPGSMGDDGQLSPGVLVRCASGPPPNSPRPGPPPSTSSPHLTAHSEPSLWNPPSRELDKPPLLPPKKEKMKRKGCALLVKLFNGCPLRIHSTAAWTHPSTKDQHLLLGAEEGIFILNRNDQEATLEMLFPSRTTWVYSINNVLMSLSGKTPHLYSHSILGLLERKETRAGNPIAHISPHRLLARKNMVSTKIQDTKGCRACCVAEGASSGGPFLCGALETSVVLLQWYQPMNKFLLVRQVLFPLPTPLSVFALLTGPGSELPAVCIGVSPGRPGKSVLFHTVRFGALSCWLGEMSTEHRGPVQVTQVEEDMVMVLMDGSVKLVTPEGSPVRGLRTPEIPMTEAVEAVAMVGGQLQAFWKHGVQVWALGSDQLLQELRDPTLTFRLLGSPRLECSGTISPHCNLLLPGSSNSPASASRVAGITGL
Example B1: HPK1-FL HTRF Enzymatic Assay (“HTRF”)
HPK-FL enzyme phosphorylates Biotin-SLP-76 substrate in the presence of ATP at 1 mM and varying concentrations of test compound. Product is detected by FRET using Eu-anti-pSLP76 Ab and SA-XL665. Also see www.cisbio.com/HTRF for additional HTRF technology information.
• Echo555 compound dispenser • Agilent Bravo • Perkin Elmer Envision Final Assay Conditions:
Materials: • Assay plate: White ProxiPlate 384 F (PerkinElmer cat #6008289) • Kinase: HPK full length double mutant • Substrate: Biotin-SLP76 • ATP: 100 mM ATP • BSG: 2% BSG • DMSO: DMSO (Sigma cat #34869-100ML) • Reaction Buffer: H2O/50 mM HEPES, pH 7.5/10 mM MgCl2/2 mM TCEP/0.01% Brij-35/0.01% BSG • Detection mix:Eu-anti-pSLP76/SA-XL665 (Cisbio, #610SAXAC) Assay Procedure Ki determination:
To a 384 well Proxiplate with 80 nL compound or DMSO spotted on was added 4 μl/well kinase mix. The mixture was preincubated for 30 minutes and then 4 μl/well substrate mix was added. The solution was incubated for 60 min and then 4 μl/well detection mix was added. The solution was incubated for another 60 min. The plates were then loaded onto a Perkin Elmer Envision and the TR-FRET signal was measured at 615 and 665 nm. A ratio of […] was used to calculate the % activity at each concentration of compound.
Background: TR-FRET usually uses a lanthanide donor and a delayed reading to cut background.
Take `Cc1c(-c2cc3cc(Nc4cc5n(n4)CC(=O)NCC5)ncc3cc2F)cnc2c1NCCC2O` (racemic) [Compound 201, (+/-)-2-((7-fluoro-6-(8-hydroxy-4-methyl-5,6,7,8-tetrahydro-1,5-naphthyridin-3-yl)isoquinolin-3-yl)amino)-5,6-dihydro-4H-pyrazolo[1,5-d][1,4]diazepin-7(8H)-one formate salt]: the inhibition constant Ki amounted to 0.11 nM.
As to `CN[C@@H]1CCN(c2cc(C)c(-c3cc4cc(Nc5cc6n(n5)CC(=O)N(C)CC6)ncc4cc3F)cn2)C1` (single isomer, unassigned) [Compound 206a], the Ki is 6.7 nM.
Consider `Cc1c(-c2c(F)cc3cnc(Nc4cc5n(n4)CC(=O)N(C)CC5)cc3c2F)cnc2c1NCCO2` [Compound 223, 2-((5,7-difluoro-6-(8-methyl-2,3-dihydro-1H-pyrido[2,3-b][1,4]oxazin-7-yl)isoquinolin-3-yl)amino)-6-methyl-5,6-dihydro-4H-pyrazolo[1,5-d][1,4]diazepin-7(8H)-one], for which the Ki was found to be 0.04 nM.
Then `Cc1c(-c2cc3cc(Nc4cc5n(n4)CC(=O)N(C)CC5)ncc3cc2F)cnnc1N` [Compound 194, 2-((6-(6-amino-5-methylpyridazin-4-yl)-7-fluoroisoquinolin-3-yl)amino)-6-methyl-5,6-dihydro-4H-pyrazolo[1,5-d][1,4]diazepin-7(8H)-one], with 0.83 nM; and `Cc1c(NCC(F)(F)F)cncc1-c1cc2cc(Nc3cc4n(n3)CC(=O)NCC4)ncc2cc1F` [Compound 239, 2-((7-fluoro-6-(4-methyl-5-((2,2,2-trifluoroethyl)amino)pyridin-3-yl)isoquinolin-3-yl)amino)-5,6-dihydro-4H-pyrazolo[1,5-d][1,4]diazepin-7(8H)-one], with 0.062 nM; and `Cc1ccncc1-c1cc2cc(Nc3cc4n(n3)CC3=NOC(C)(C)N3CC4)ncc2cc1F` [Compound 134, N-(7-fluoro-6-(4-methylpyridin-3-yl)isoquinolin-3-yl)-3,3-dimethyl-5,6-dihydro-3H,11H-[1,2,4]oxadiazolo[4,3-a]pyrazolo[1,5-d][1,4]diazepin-8-amine], with 3.4 nM.
Then `Cc1c(N)cncc1-c1cc2cc(Nc3cc4n(n3)Cc3nccn3CC4)ncc2cc1F` [Compound 125, N-(6-(5-amino-4-methylpyridin-3-yl)-7-fluoroisoquinolin-3-yl)-5,6-dihydro-11H-imidazo[1,2-a]pyrazolo[1,5-d][1,4]diazepin-8-amine], with 0.03 nM.
With `Cc1c(-c2cc3cc(Nc4cc5n(n4)CC(=O)N([C@@H](C)C#N)CC5)ncc3cc2F)cnc2c1NCCO2` (single isomer, unassigned) [Compound 147a] the figure was 0.014 nM; with `Cc1ccncc1-c1cc2cc(Nc3cc4n(n3)CC(=O)N(C(C)C)CC4)ncc2cc1F` [Compound 131, 2-[[7-fluoro-6-(4-methyl-3-pyridyl)-3-isoquinolyl]amino]-6-isopropyl-5,8-dihydro-4H-pyrazolo[1,5-d][1,4]diazepin-7-one], 2.5 nM; with `CNC1CCN(c2cc(C)c(-c3cc4cc(Nc5cc6n(n5)CC(=O)N(C)CC6)ncc4cc3F)cn2)CC1` [Compound 199, 2-((7-fluoro-6-(4-methyl-6-(4-(methylamino)piperidin-1-yl)pyridin-3-yl)isoquinolin-3-yl)amino)-6-methyl-5,6-dihydro-4H-pyrazolo[1,5-d][1,4]diazepin-7(8H)-one], 5 nM.
As to `Cc1c(-c2cc3cc(Nc4cc5n(n4)CC(=O)N(C)CC5)ncc3cc2F)cnc2c1CNCCO2` [Compound 232, 2-((7-fluoro-6-(6-methyl-2,3,4,5-tetrahydropyrido[3,2-f][1,4]oxazepin-7-yl)isoquinolin-3-yl)amino)-6-methyl-5,6-dihydro-4H-pyrazolo[1,5-d][1,4]diazepin-7(8H)-one], the inhibition constant (Ki) amounted to 11 nM.
Then `Cc1c(-c2cc3cc(Nc4cc5n(n4)CC(=O)NCC5)ncc3cc2F)cnc2c1NCCOC2` [Compound 230, 2-((7-fluoro-6-(9-methyl-1,2,3,5-tetrahydropyrido[3,2-e][1,4]oxazepin-8-yl)isoquinolin-3-yl)amino)-5,6-dihydro-4H-pyrazolo[1,5-d][1,4]diazepin-7(8H)-one], with 0.793 nM; and `Cc1c(NC2CNC2)cncc1-c1cc2cc(Nc3cc4n(n3)Cc3nccn3CC4)ncc2cc1F` [Compound 179, N-(6-(5-(azetidin-3-ylamino)-4-methylpyridin-3-yl)-7-fluoroisoquinolin-3-yl)-5,6-dihydro-11H-imidazo[1,2-a]pyrazolo[1,5-d][1,4]diazepin-8-amine], with 0.5 nM; and `Cc1ncc(-c2cc3cc(Nc4cc5n(n4)CC(=O)N(C(C)C)CC5)ncc3c(O)c2F)c(C)c1N` [Compound 133, 2-((6-(5-amino-4,6-dimethylpyridin-3-yl)-7-fluoro-8-hydroxyisoquinolin-3-yl)amino)-6-isopropyl-5,6-dihydro-4H-pyrazolo[1,5-d][1,4]diazepin-7(8H)-one], with 3.7 nM.
With `Cc1c(-c2cc3cc(Nc4cc5n(n4)CC(=O)N(C)CC5)ncc3cc2F)cnc2c1NS(=O)(=O)CO2` [Compound 193, 2-((7-fluoro-6-(8-methyl-2,2-dioxido-1H,3H-pyrido[3,2-e][1,3,4]oxathiazin-7-yl)isoquinolin-3-yl)amino)-6-methyl-5,6-dihydro-4H-pyrazolo[1,5-d][1,4]diazepin-7(8H)-one] the figure was 23 nM; with `Cc1c(N)cncc1-c1cc2cc(Nc3cc4n(n3)CS(=O)(=O)N(C)CC4C)ncc2cc1F` (stereo not shown) [Compound 113, 2-((6-(5-amino-4-methylpyridin-3-yl)-7-fluoroisoquinolin-3-yl)amino)-4,6-dimethyl-5,6-dihydro-4H,8H-pyrazolo[5,1-e][1,2,6]thiadiazepine 7,7-dioxide], 1.2 nM; with `Cc1c(-c2cc3cc(Nc4cc5n(n4)Cc4nccn4CC5)ncc3cc2F)cnc2c1NCCCO2` [Compound 183, N-(7-fluoro-6-(9-methyl-1,2,3,4-tetrahydropyrido[2,3-b][1,4]oxazepin-8-yl)isoquinolin-3-yl)-5,6-dihydro-11H-imidazo[1,2-a]pyrazolo[1,5-d][1,4]diazepin-8-amine], 0.013 nM.
Then `Cc1c(N)cncc1-c1cc2cc(Nc3cc4n(n3)CC(=O)N(C(C)(C)C)C[C@H]4F)ncc2cc1F` (single isomer, unassigned) [Compound 167a], with 0.128 nM; and `Cc1c(N)cncc1-c1cc(Cl)c2cnc(Nc3cc4n(n3)CC(=O)N(C(C)C)CC4)cc2c1` [Compound 117, 2-((6-(5-amino-4-methylpyridin-3-yl)-8-chloroisoquinolin-3-yl)amino)-6-isopropyl-5,6-dihydro-4H-pyrazolo[1,5-d][1,4]diazepin-7(8H)-one], with 0.64 nM.
With `Cc1c(N)cncc1-c1cc(F)c2cnc(Nc3cc4n(n3)CC(=O)NCC43CC3)cc2c1` [Compound 225, 2′-((6-(5-amino-4-methylpyridin-3-yl)-8-fluoroisoquinolin-3-yl)amino)-5′,6′-dihydrospiro[cyclopropane-1,4′-pyrazolo[1,5-d][1,4]diazepin]-7′(8′H)-one], the inhibition constant (Ki) was 0.013 nM.
On to `Cc1c(N)cncc1-c1ccc2cnc(Nc3cc4n(n3)CC(=O)N(C(C)C)CC4)cc2c1Cl` [Compound 152, 2-((6-(5-amino-4-methylpyridin-3-yl)-5-chloroisoquinolin-3-yl)amino)-6-isopropyl-5,6-dihydro-4H-pyrazolo[1,5-d][1,4]diazepin-7(8H)-one], for which the Ki came to 0.028 nM.
Turning to `Cc1c(N)cncc1-c1cc2cc(Nc3cc4n(n3)C[S+]([O-])CC4)ncc2cc1F` (racemic) [Compound 191, (+/-)-2-((6-(5-amino-4-methylpyridin-3-yl)-7-fluoroisoquinolin-3-yl)amino)-4,5-dihydro-7H-pyrazolo[1,5-c][1,3]thiazine 6-oxide], the Ki was found to be 2.6 nM.
With `Cc1c(-c2cc3cc(Nc4cc5n(n4)CC(=O)N(C)CC5)ncc3c(F)c2F)cnc2c1NCCO2` [Compound 138, 2-((7,8-difluoro-6-(8-methyl-2,3-dihydro-1H-pyrido[2,3-b][1,4]oxazin-7-yl)isoquinolin-3-yl)amino)-6-methyl-5,6-dihydro-4H-pyrazolo[1,5-d][1,4]diazepin-7(8H)-one] the figure was 0.013 nM; with `Cc1c(-c2cc3cc(Nc4cc5n(n4)CC(=O)N(C)CC5)ncc3cc2F)cnc2c1NCC(C)(C)C2=O` [Compound 240, 2-((7-fluoro-6-(4,7,7-trimethyl-8-oxo-5,6,7,8-tetrahydro-1,5-naphthyridin-3-yl)isoquinolin-3-yl)amino)-6-methyl-5,6-dihydro-4H-pyrazolo[1,5-d][1,4]diazepin-7(8H)-one], 0.014 nM; with `Cc1c(N)cncc1-c1cc2cc(Nc3cc4n(n3)CC(=O)NCC43CC3)ncc2cc1F` [Compound 224, 2′-((6-(5-amino-4-methylpyridin-3-yl)-7-fluoroisoquinolin-3-yl)amino)-5′,6′-dihydrospiro[cyclopropane-1,4′-pyrazolo[1,5-d][1,4]diazepin]-7′(8′H)-one], 0.013 nM.
